In PMC8766756, “Insights on Cancer Cell Inhibition, Subcellular Activities, and Kinase Profile of Phenylacetamides Pending 1H-Imidazol-5-One Variants” (Frontiers in Pharmacology, 2022):
Read-outs that look alike come from different tables or passages of the source.

Key:
[1] = Binding to mouse plasma proteins (equilibrium dialysis); format: in vitro ADME; conditions: pH 7.4, CD-1 mouse plasma, equilibrium dialysis 22 h, read-out: Mouse plasma protein binding (% free at 37°C)
Method: The equilibrium dialysis method for determining plasma protein binding was performed as previously described using 96-well dialyzer plates with a molecular weight cutoff of 5K (Harvard Apparatus, Holliston, MA) and a dual-plate rotator set to maximum speed (Harvard Apparatus, Holliston, MA) located in a 37°C incubator with a 10% CO2 atmospheric environment. The assays were run in triplicate. KIM-161 was added to CD-1 mouse plasma (Innovative Research, Novi, MI, sodium heparin added as anticoagulant; pH adjusted to 7.4 with 2N HCl on the day of use) in DMSO (final DMSO concentration 0.4%) to give a 10 µM final concentration. The drug/plasma mixture and buffer (Dulbecco's PBS 1X without calcium and magnesium, Mediatech, Inc., Herndon, VA) were placed in their respective sides; the wells were capped; and the plate was placed in the rotator and allowed to dialyze for 22 h. Following dialysis, aliquots of the buffer and plasma mixture were removed and mixed with aliquots of the opposite matrix in 96-well deep plates. The concentrations of the analytes from each side of the dialysis plate were determined by LC/MS/MS on a Waters Xevo TQ instrument as described above using positive electrospray ionization. […] The fraction unbound was calculated by dividing the drug concentration in the buffer side of the dialysis plate by the drug concentration in the plasma side.

[2] = tested on: HCT116 colon cancer cell line; test: MTT antiproliferative assay; format: cell-based; conditions: Homo sapiens, HCT-116
Method: The compounds were screened for their anticancer activities against a variety of cancer cell lines. The cytotoxic effect of the compounds was evaluated using the sulforhodamine B (SRB) cytotoxicity assay for breast cancer line (MCF7) and prostate cancer cell line (PC3) ([Vichai and Kirtikara, 2006]; [Rana et al., 2021]) and 3-(4,5-dimethylthiazol-2-yl)-2,5-diphenyl-2H-tetrazolium bromide (MTT) assay for the colon cancer (HCT116) cell lines ([El-Huneidi et al., 2020]). The CellTiter-Blue® cell viability assay was performed on the various leukemia cell lines, HL60, NB4, and KG1a cells ([Akter et al., 2019]). The IC50 values are illustrated in Table 1.
MCF7 (breast), PC3 (prostate), and HCT116 (colon) cancer cell lines were obtained from ATCC, Manassas, VA, USA. Cells were grown in Roswell Park Memorial Institute-1640 (RPMI-1640) medium (Thermo Fisher Scientific, Inc., Waltham, MA, USA), supplemented with 10% heat inactivated fetal bovine serum (FBS), 50 units/mL of penicillin, and […] of streptomycin and maintained at 37°C in a humidified atmosphere containing 5% CO2. The cells were maintained as “monolayer culture” by serial subculturing.
The test compounds were evaluated for antiproliferative activity using the MTT viability assay against the HCT116 cell line. The cells were seeded in triplicate in 96-well plates at a density of 10 × 10^3 cells/mL in a total volume of 200 µL per well. 0.1% of DMSO was used as a vehicle control. Each well was treated with 2 µL of test compound, which had been preprepared as stock solutions in ethanol to furnish the concentration range of the study, 0.1–50 μM, and re-incubated for a further 72 h at 37°C in a humidified atmosphere containing 5% CO2. The culture medium was then removed, and the cells were washed with 100 µL of PBS, and 100 µL of MTT was added, to reach a final concentration of 1 mg/ml of MTT. The cells were incubated for 3 h in darkness at 37°C. After removal of MTT solution, solubilization was initiated through the addition of […] of DMSO, and the cells were maintained at room temperature in darkness for 20 min to ensure thorough color diffusion before reading the absorbance with a microplate reader at 570 nm. The results were expressed as percentage viability relative to vehicle control (100%). The dose–response curves were plotted, and the IC50 values (concentration of drug resulting in 50% reduction in cell survival) were obtained using the commercial software package Prism (GraphPad® Software, Inc., La Jolla, CA, USA). All the experiments were repeated in at least three independent experiments.

[3] = Stability in mouse liver microsomes; format: in vitro ADME
Method: The clearance of KIM-161 in MLM or HLM was determined at 37°C as previously described ([Yang et al., 2007]). Both MLM and HLM were obtained from Merck KGaA (Darmstadt, Germany), Cat. No. M9441 (MLM) and M0317 (HLM). The assays were conducted in triplicate in 96-well deep polypropylene plates. […] At five time points, the reaction mixture aliquots were transferred to 96-shallow well stop plates on ice containing acetonitrile with 0.1 µM propafenone. […] The standard curves for the test compound were generated using five concentrations in triplicate that were processed as above but with zero incubation time. The stop plates were centrifuged at 2000g for 10 min, and then, the supernatant aliquots were transferred to a Waters Aquity® UPLC 700 µL 96-well sample plate with cap mat (Waters, Milford, MA). The amount of the compound remaining in the supernatant was quantified by LC/MS/MS using a Waters Xevo TQ MS (electrospray positive mode) coupled to a Waters Aquity® UPLC (BEH column, C18). Propafenone was used as the internal standard. GraphPad® Prism v.5.04 was used for nonlinear fitting of time course data to generate t1/2 values.

[4] = Stability in mouse plasma; format: in vitro ADME; conditions: 1 µM, t1/2; listed as KIM-161
Method: The assay was conducted at 37°C in triplicate. The test compound KIM-161 or procaine (the positive control) was tested at a final concentration of 1 µM in either 2.5% DMSO/CD-1 mouse plasma (Innovative Research, Novi, MI; sodium heparin added as anticoagulant; pH adjusted to 7.4 with 2N HCl on the day of use) or 2.5% DMSO/PBS (pH 7.4; 136.9 mM NaCl, 2.68 mM KCl, 8.1 mM Na2HPO4, 1.47 mM KH2PO4, 0.9 mM CaCl2, and 0.49 mM MgCl2). At seven time points, the reaction mixture aliquots were transferred to 96-shallow-well stop plates on ice containing acetonitrile with 0.1 µM propafenone. Samples were analyzed by LC/MS/MS on a Waters Xevo TQ instrument as described above using positive electrospray ionization. The assay acceptance criterion was 20% for all standards and 25% for the LLOQ. GraphPad® Prism v.5.04 was used for nonlinear fitting of data to generate t1/2 values.

## COc1ccc(/C=C2\N=C(C)N(c3ccc(CC(=O)NCc4ccccc4)cc3)C2=O)cc1 [Compound 4c, (Z)-N-Benzyl-2-(4-(4-(4-methoxybenzylidene)-2-methyl-5-oxo-4,5-dihydro-1H-imidazol-1-yl)phenyl)acetamide]
[1]
  fraction unbound at 22 h, 10 µM: 0.05
[2]; HCT116, MTT, 72 h, read-out: IC50 ± SEM HCT116
  IC50: 294 nM
[2]; HCT116 colon cancer, abstract, read-out: cytotoxic IC50 HCT116
  IC50: 294 nM
[3]; mouse liver microsomes, 37°C, t1/2
  MLM stability: 14.8 min
[3]; with NADPH, >60 min, listed as KIM-161
  % Remaining in MLM with NADPH: unchanged
[3]; without NADPH, >60 min, listed as KIM-161
  % Remaining in MLM without NADPH: Unchanged >60 min
[4]
  Stability in mouse plasma at 37°C: >300 min
